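Test compounds were applied to cells in 96-well plates for 48 hours at 5 doses. TGI denotes the concentration required for complete inhibition of growth.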
Experiments:
Experiment in all cases: growth of human tumour cells (NCI), 48 h
HL-60(TB) leukemia = test system: HL-60(TB) leukemia
SF-539 CNS = test system: SF-539 CNS
SN12C renal = test system: SN12C renal
IGROV1 ovarian = test system: IGROV1 ovarian
OVCAR-3 ovarian = test system: OVCAR-3 ovarian
NCI-H460 lung = test system: NCI-H460 lung
COLO 205 colon = test system: COLO 205 colon
SNB-75 CNS = test system: SNB-75 CNS
HOP-92 NSCLC = test system: HOP-92 NSCLC
A498 renal = test system: A498 renal
MOLT-4 leukemia = test system: MOLT-4 leukemia
SNB-78 CNS = test system: SNB-78 CNS
NCI-H522 lung = test system: NCI-H522 lung
UACC-257 melanoma = test system: UACC-257 melanoma
CCRF-CEM leukemia = test system: CCRF-CEM leukemia
A549 NSCLC = test system: A549 NSCLC
MALME-3M melanoma = test system: MALME-3M melanoma
HT29 colon = test system: HT29 colon
786-0 renal = test system: 786-0 renal
TK-10 renal = test system: TK-10 renal
UACC-62 melanoma = test system: UACC-62 melanoma
SK-MEL-2 melanoma = test system: SK-MEL-2 melanoma
U251 CNS = test system: U251 CNS
SK-MEL-5 melanoma = test system: SK-MEL-5 melanoma
SW-620 colon = test system: SW-620 colon
RXF 393 renal = test system: RXF 393 renal
HCT-15 colon = test system: HCT-15 colon
HCC-2998 colon = test system: HCC-2998 colon
KM12 colon = test system: KM12 colon
SF-295 CNS = test system: SF-295 CNS
OVCAR-8 ovarian = test system: OVCAR-8 ovarian
KM20L2 colon = test system: KM20L2 colon
SK-MEL-28 melanoma = test system: SK-MEL-28 melanoma
M19-MEL melanoma = test system: M19-MEL melanoma
SF-268 CNS = test system: SF-268 CNS
K-562 leukemia = test system: K-562 leukemia
DMS 273 small cell lung = test system: DMS 273 small cell lung
RPMI-8226 leukemia = test system: RPMI-8226 leukemia
DMS 114 small cell lung = test system: DMS 114 small cell lung
SNB-19 CNS = test system: SNB-19 CNS
NCI-H23 lung = test system: NCI-H23 lung
OVCAR-5 ovarian = test system: OVCAR-5 ovarian
EKVX NSCLC = test system: EKVX NSCLC
HOP-62 NSCLC = test system: HOP-62 NSCLC
SK-OV-3 ovarian = test system: SK-OV-3 ovarian
DLD-1 colon = test system: DLD-1 colon
HOP-18 NSCLC = test system: HOP-18 NSCLC
LOX IMVI melanoma = test system: LOX IMVI melanoma
UO-31 renal = test system: UO-31 renal
CAKI-1 renal = test system: CAKI-1 renal

Measured: TGI

Cc1nc(N)sc1C(=O)/C=C/c1ccc([N+](=O)[O-])cc1
> 100 µM: all assays above

Source: PubChem BioAssay (NCI)
